Numbered stars: 1 amine (or outer) side, 2 acyl side, 3 side chain; on linkers, the order of the positions; unused ones are H or OH. Bridge positions count the residues as written; N and C are the ends. Side chains are listed from the residue outwards. Peptide text beside a SMILES is read from it. * marks the point of attachment. C20 diacid = O=C(O)CCCCCCCCCCCCCCCCCCC(=O)*; γGlu = O=C(O)[C@H](CCC(=O)[*:2])N[*:1]
Assays:
[1] = biological target: T1, human amylin 3(a) receptor (human calcitonin receptor + RAMP-3) in BHK570 cells (Homo sapiens, UniProt O60896+P30988); assay: ASSAY (II)a functional assay, human amylin receptor (CRE luciferase); format: cell-based
T1 construct: expressed in transfected cells
How it was run: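 BHK cells stably carrying a CRE-luciferase reporter plus calcitonin receptor, or calcitonin receptor with RAMP-3 for the amylin 3(a) receptor, were seeded and kept overnight at 37° C. Compounds were added in assay medium with 10% FBS and 10 mM Hepes, pH 7.4, for 3 hours at 37° C, then luminescence was counted.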

[2] = biological target: T2, human amylin receptor (membranes from Amylin 3(a)/CRE-luc cells) (Homo sapiens, UniProt O60896+P30988); assay: ASSAY (V) binding to the human amylin receptor (SPA, 125I-rat amylin);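 also: competition binding of cell membranes (35 ng/µL) mixed with SPA beads in 384-well plates at 40 µL total volume, read by scintillation counting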
T2 construct: expressed in transfected cells
T2 sequence (P30988 25-474): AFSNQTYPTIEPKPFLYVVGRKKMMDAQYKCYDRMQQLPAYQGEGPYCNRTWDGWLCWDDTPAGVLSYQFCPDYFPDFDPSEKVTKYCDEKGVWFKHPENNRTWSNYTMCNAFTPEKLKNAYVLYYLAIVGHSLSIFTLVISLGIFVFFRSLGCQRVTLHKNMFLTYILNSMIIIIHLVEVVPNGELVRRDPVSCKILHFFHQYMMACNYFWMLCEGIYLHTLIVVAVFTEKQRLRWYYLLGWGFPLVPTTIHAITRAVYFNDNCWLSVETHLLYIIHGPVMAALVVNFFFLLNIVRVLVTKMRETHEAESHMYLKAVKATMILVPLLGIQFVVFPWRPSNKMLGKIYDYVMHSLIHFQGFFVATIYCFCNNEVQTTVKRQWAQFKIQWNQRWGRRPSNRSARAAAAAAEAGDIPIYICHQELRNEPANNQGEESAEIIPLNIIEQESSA
T2 sequence (O60896 24-148 partner): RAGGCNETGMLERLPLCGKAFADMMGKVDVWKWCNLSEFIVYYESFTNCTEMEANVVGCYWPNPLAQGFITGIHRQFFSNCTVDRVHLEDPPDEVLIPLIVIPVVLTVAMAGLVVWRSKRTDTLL

[3] = biological target: T3, rat amylin receptor (rat calcitonin receptor + rat RAMP 3) (Rattus norvegicus, UniProt P32214+Q9JJ73); assay: ASSAY (VI) binding to the rat amylin receptor; conditions: for IC50: binding to rat amylin receptor, read-out: rAmylin-R bind IC50
T3 construct: expressed in transfected cells; host or cells: BHK tk'ts 13 (transient, FuGENE 6), membranes
T3 sequence (P32214 25-479 isoform P32214-2 limits assumed): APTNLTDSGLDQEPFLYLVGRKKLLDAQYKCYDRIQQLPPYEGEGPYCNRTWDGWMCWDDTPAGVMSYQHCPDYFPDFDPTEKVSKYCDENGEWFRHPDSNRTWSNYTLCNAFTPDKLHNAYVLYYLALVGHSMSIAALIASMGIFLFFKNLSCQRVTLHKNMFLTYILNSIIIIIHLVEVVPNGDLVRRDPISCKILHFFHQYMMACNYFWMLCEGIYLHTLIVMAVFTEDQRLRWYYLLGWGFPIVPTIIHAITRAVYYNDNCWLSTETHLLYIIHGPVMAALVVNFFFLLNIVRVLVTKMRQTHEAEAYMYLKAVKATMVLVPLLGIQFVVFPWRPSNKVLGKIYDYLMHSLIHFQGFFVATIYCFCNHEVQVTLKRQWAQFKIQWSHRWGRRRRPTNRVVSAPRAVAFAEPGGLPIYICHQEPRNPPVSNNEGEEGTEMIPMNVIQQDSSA
T3 sequence (Q9JJ73 23-147 partner): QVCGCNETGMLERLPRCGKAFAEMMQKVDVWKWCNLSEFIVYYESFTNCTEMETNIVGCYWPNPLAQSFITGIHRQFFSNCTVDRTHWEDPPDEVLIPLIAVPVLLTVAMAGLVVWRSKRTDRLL
How it was run: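 Binding to the rat amylin receptor was determined with membrane preparations. The receptor was expressed by transiently transfecting BHK tk′ts 13 cells with rat calcitonin receptor, using FuGENE® 6 (Roche) according to the manufacturer's recommendations. Roughly 48 hours later the cells were harvested and their membranes isolated.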

rat calcitonin receptor = biological target: T4, rat calcitonin receptor (Rattus norvegicus, UniProt P32214); assay: ASSAY (VIII) binding to the rat calcitonin receptor; conditions: Table 7, read-out: rCTR bind IC50
T4 construct: expressed in transfected cells; host or cells: BHK tk'ts 13 (transient, FuGENE 6), membranes
T4 sequence (P32214 25-479 isoform P32214-2 limits assumed): T3 sequence (P32214 25-479 isoform P32214-2 limits assumed)
How it was run: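 Rat calcitonin receptor is expressed transiently in BHK tk′ts 13 cells cultured in DMEM with 10% FBS. Roughly two days (approximately 48 hours) post-transfection, cells are harvested for membrane preparation.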

[4] = hCTR funct. EC50 divided by hAmylin-R funct. EC50
[5] = hCTR funct. EC50 over hAmylin-R funct. EC50
[6] = human functional selectivity: hCTR funct. EC50 / hAmylin-R funct. EC50
[7] = Table 5, selectivity, hCTR bind IC50 / hAmylin-R bind IC50
[8] = Table 5a, selectivity, hCTR bind IC50 / hAmylin-R bind IC50
[9] = Table 5b, selectivity, hCTR bind IC50 / hAmylin-R bind IC50
[10] = Table 5c, selectivity, hCTR bind IC50 / hAmylin-R bind IC50
[11] = Table 7, human binding selectivity, included for comparison
[12] = Table 7a (preferred compounds), human binding selectivity, included for comparison
[13] = ratio of human calcitonin receptor binding IC50 to human amylin receptor binding IC50
[14] = Table 7, rat binding selectivity, rCTR IC50 / rAmylin-R IC50
[15] = Table 7a (preferred compounds), rat binding selectivity, rCTR IC50 / rAmylin-R IC50
[16] = ratio of rCTR bind IC50 to rAmylin-R bind IC50

| SMILES | Ratio hCT/hAmylin funct. [1, 4] | Ratio hCT/hAmylin funct. [1, 5] | Ratio hCT/hAmylin funct. [1, 6] | Ratio hCT/hAmylin binding [2, 7] | Ratio hCT/hAmylin binding [2, 8] | Ratio hCT/hAmylin binding [2, 9] | Ratio hCT/hAmylin binding [2, 10] | Ratio hCT/hAmylin binding [2, 11] | Ratio hCT/hAmylin binding [2, 12] | Ratio hCT/hAmylin binding [2, 13] | IC50 ([3]; Table 7) | Ratio rCT/rAmylin binding [3, 14] | Ratio rCT/rAmylin binding [3, 15] | Ratio rCT/rAmylin binding [3, 16] | IC50 (rat calcitonin receptor) |
| --- | --- | --- | --- | --- | --- | --- | --- | --- | --- | --- | --- | --- | --- | --- | --- |
| CC[C@H](C)[C@H](NC(=O)[C@H](C)NC(=O)CNC(=O)[C@H](Cc1ccccc1)NC(=O)[C@H](CC(N)=O)NC(=O)[C@@H]1CCCN1C(=O)[C@H](CO)NC(=O)[C@H](CO)NC(=O)[C@H](Cc1c[nH]cn1)NC(=O)[C@H](CCCNC(=N)N)NC(=O)[C@H](CC(C)C)NC(=O)[C@H](Cc1ccccc1)NC(=O)[C@H](CC(N)=O)NC(=O)[C@H](C)NC(=O)[C@H](CC(C)C)NC(=O)[C@H](CCCNC(=N)N)NC(=O)[C@H](CCC(N)=O)NC(=O)[C@@H](NC(=O)[C@H](C)NC(=O)[C@@H]1CSSC[C@H](NC(=O)[C@H](CCCNC(=N)N)NC(=O)CNC(=O)CC[C@H](NC(=O)CCCCCCCCCCCCCCCCCCC(=O)O)C(=O)O)C(=O)N[C@@H](CC(N)=O)C(=O)N[C@@H]([C@@H](C)O)C(=O)N[C@@H](C)C(=O)N[C@@H]([C@@H](C)O)C(=O)N1)[C@@H](C)O)C(=O)N1CCC[C@H]1C(=O)N[C@@H](CO)C(=O)N[C@@H](CO)C(=O)N[C@H](C(=O)N[C@@H](CC(N)=O)C(=O)N[C@H](C(=O)NCC(=O)N[C@@H](CO)C(=O)N[C@@H](Cc1c[nH]cn1)C(=O)N[C@H](C(=O)N[C@@H](Cc1ccc(O)cc1)C(N)=O)[C@@H](C)O)C(C)C)[C@@H](C)O [Example 47] ({C20 diacid-γGlu}-GRCNTATCATQRLANFLRHSSPNFGAIPSSTNVGSHTY-NH2; disulfide 3-8) | 6.0 | 6.0 | 6.0 | 44.9 | 44.9 | 44.9 | 44.9 | 44.9 | 44.9 | 44.9 | 0.203 nM | 84.3 | 84.3 | 84.3 | 17.1 nM |
| CC[C@H](C)[C@H](NC(=O)[C@H](C)NC(=O)CNC(=O)[C@H](Cc1ccccc1)NC(=O)[C@H](CC(N)=O)NC(=O)[C@@H]1CCCN1C(=O)[C@H](CO)NC(=O)[C@H](CO)NC(=O)[C@H](Cc1c[nH]cn1)NC(=O)[C@H](CCCNC(=N)N)NC(=O)[C@H](CC(C)C)NC(=O)[C@H](Cc1ccccc1)NC(=O)[C@H](CCC(=O)O)NC(=O)[C@H](C)NC(=O)[C@H](CC(C)C)NC(=O)[C@H](CCCNC(=N)N)NC(=O)[C@H](CCC(N)=O)NC(=O)[C@@H](NC(=O)[C@H](C)NC(=O)[C@@H]1CSSC[C@H](NC(=O)[C@@H](N)CCCCNC(=O)CC[C@H](NC(=O)CCCCCCCCCCCCCCCCCCC(=O)O)C(=O)O)C(=O)N[C@@H](CC(N)=O)C(=O)N[C@@H]([C@@H](C)O)C(=O)N[C@@H](C)C(=O)N[C@@H]([C@@H](C)O)C(=O)N1)[C@@H](C)O)C(=O)N1CCC[C@H]1C(=O)N[C@@H](CO)C(=O)N[C@@H](CO)C(=O)N[C@H](C(=O)N[C@@H](CC(N)=O)C(=O)N[C@H](C(=O)NCC(=O)N[C@@H](CO)C(=O)N[C@@H](CCCNC(=N)N)C(=O)N[C@H](C(=O)N[C@@H](Cc1ccc(O)cc1)C(N)=O)[C@@H](C)O)C(C)C)[C@@H](C)O [Example 51] (H-K([γGlu-C20 diacid])CNTATCATQRLAEFLRHSSPNFGAIPSSTNVGSRTY-NH2; disulfide 2-7 (inferred); N-terminus assumed) | 14.0 | 14.0 | 14.0 | 37.5 | 37.5 | 37.5 | 37.5 | 37.5 | 37.5 | 37.5 | 0.523 nM | 118.6 | 118.6 | 118.6 | 62 nM |
| CC[C@H](C)[C@H](NC(=O)[C@H](C)NC(=O)CNC(=O)[C@H](Cc1ccccc1)NC(=O)[C@H](CC(N)=O)NC(=O)[C@@H]1CCCN1C(=O)[C@H](CO)NC(=O)[C@H](CO)NC(=O)[C@H](Cc1c[nH]cn1)NC(=O)[C@H](CCCNC(=N)N)NC(=O)[C@H](CC(C)C)NC(=O)[C@H](Cc1ccccc1)NC(=O)[C@H](CC(N)=O)NC(=O)[C@H](C)NC(=O)[C@H](CC(C)C)NC(=O)[C@H](CCCNC(=N)N)NC(=O)[C@H](CCC(N)=O)NC(=O)[C@@H](NC(=O)[C@H](C)NC(=O)[C@@H]1CSSC[C@H](NC(=O)[C@@H](N)CCCCNC(=O)CC[C@H](NC(=O)CCCCCCCCCCCCCCCCCCC(=O)O)C(=O)O)C(=O)N[C@@H](CC(N)=O)C(=O)N[C@@H]([C@@H](C)O)C(=O)N[C@@H](C)C(=O)N[C@@H]([C@@H](C)O)C(=O)N1)[C@@H](C)O)C(=O)N1CCC[C@H]1C(=O)N[C@@H](CO)C(=O)N[C@@H](CO)C(=O)N[C@H](C(=O)N[C@@H](CC(N)=O)C(=O)N[C@H](C(=O)NCC(=O)N[C@@H](CO)C(=O)N[C@@H](Cc1c[nH]cn1)C(=O)N[C@H](C(=O)N[C@@H](Cc1ccc(O)cc1)C(N)=O)[C@@H](C)O)C(C)C)[C@@H](C)O [Example 60] | 15.3 | 15.3 | 15.3 | 45.2 | 45.2 | 45.2 | 45.2 | 45.2 | 45.2 | 45.2 | 0.215 nM | 122.4 | 122.4 | 122.4 | 26.3 nM |

Reference: patent US9023789B2, “Amylin analogs and pharmaceutical compositions thereof” (Novo Nordisk A/S, priority 2012, dated 2015)
